Assay type in all cases: functional
Test [1] deals with IMR-32. The experiment in a line: Growth inhibition of human IMR32 cells at 10 uM after 48 hrs by SRB assay. The conditions noted are these: IMR-32, 48 h, read-out: GI.
For test [2], the system named is A549. The experiment in a line: Growth inhibition of human A549 cells at 10 uM after 48 hrs by SRB assay. The conditions noted are these: A549, 48 h, read-out: GI. Background: Sulforhodamine B stains cellular protein and so reports cell mass.
Test [3] concerns COLO 205. As to the kind of experiment: Growth inhibition of human COLO205 cells at 10 uM after 48 hrs by SRB assay. As to conditions: COLO 205, 48 h, read-out: GI.
Test [4] is described as follows: Growth inhibition of human 502713 cells at 10 uM after 48 hrs by SRB assay. As to conditions: Homo sapiens, 502713, 48 h; read-out: GI.
Test [5] relates to Rattus norvegicus. As to the kind of experiment: Antiinflammatory activity in albino Charles-Foster rat assessed as inhibition of carrageenan-induced paw oedema at 50 mg/kg, po administered 30 mins before carrageenan challenge […] after 1-3 hrs relative to control. Also noted: scale not given: the % may be the effect or the level left. In general terms: In the carrageenan paw model, swelling and tenderness develop within hours.

In test [6] the test system is HEp-2. As to the kind of experiment: Growth inhibition of human Hep2 cells at 10 uM after 48 hrs by SRB assay. The conditions noted are these: HEp-2, 48 h, read-out: GI.
In test [7] the test system is MCF7. As to the kind of experiment: Growth inhibition of human MCF7 cells at 10 uM after 48 hrs by SRB assay. The conditions noted are these: MCF7, 48 h, read-out: GI.
Test [8] concerns HCT-15. The experiment in a line: Growth inhibition of human HCT15 cells at 10 uM after 48 hrs by SRB assay. As to conditions: HCT-15, 48 h, read-out: GI.
In test [9] the test system is PC-3. The experiment in a line: Growth inhibition of human PC3 cells at 10 uM after 48 hrs by SRB assay. The conditions noted are these: PC-3, 48 h, read-out: GI.
In test [10] the test system is DU-145. The experiment in a line: Growth inhibition of human DU145 cells at 10 uM after 48 hrs by SRB assay. The conditions noted are these: DU-145, 48 h, read-out: GI.
Test [11] relates to OVCAR-5. The experiment in a line: Growth inhibition of human OVCAR5 cells at 10 uM after 48 hrs by SRB assay. The conditions noted are these: OVCAR-5, 48 h, read-out: GI.

Consider 22 molecules from ChEMBL document CHEMBL1154710, “Synthesis, anti-inflammatory and anticancer activity evaluation of some novel acridine derivatives” (2010).

For the molecule `COc1ccc2nc3ccccc3c(NCCc3cccs3)c2c1`, the inhibition of growth at 10 µM worked out at 89% in test [1]; 20% in test [2]; 69% in test [3]; 67% in [4]; 52% in [6]; 44% in test [7]. In addition, the inhibition of growth at 10 µM in test [8] was found to be 78%. The Activity in test [5] is on record as 41.17%.

Regarding `Cc1cccc2c(NC(=S)NCc3ccco3)c3ccccc3nc12`, the inhibition of growth at 10 µM in test [1] was 5%; in [2] it was 46%; in test [3] it was 88%; in test [4] it was 95%; in [6], 61%; in test [7], 94%. The Activity in test [5] is 32.33%.

Consider `Cc1cccc2c(NC(=S)NCCc3cccs3)c3ccccc3nc12`, for which the inhibition of growth at 10 µM in test [1] was 42%; in [2], 53%; in test [3] it was 19%; in test [4], 71%; in test [6], 67%; in test [7] it was 92%. Moreover, in test [5], the Activity is reported as 30.7%.

Take `COc1ccc2nc3ccccc3c(NCCc3c[nH]c4ccccc34)c2c1`: the inhibition of growth at 10 µM in [9] is 51%; in test [3] it was 0%; in [10], 25%; in test [6], 9%; in [11], 23%; in test [7], 42%. Moreover, in test [5], the Activity came out at 31.33%.

As for `COc1ccc2nc3ccccc3c(NC(=S)NCCc3cccs3)c2c1`, the inhibition of growth at 10 µM in test [1] turned out to be 74%; in test [2], 42%; in test [3], 35%; in test [4], 46%; in test [6], 28%; in test [7], 34%. Further, in [8], the inhibition of growth at 10 µM worked out at 45%. In test [5], the Activity worked out at 34.08%.

Take `Cc1cccc2c(NCc3ccco3)c3ccccc3nc12`: the inhibition of growth at 10 µM is 86% in test [1]; 52% in test [2]; 72% in test [3]; 52% in [4]; 51% in test [6]; 58% in test [7]. The inhibition of growth at 10 µM in [8] is 74%. Further, the Activity in test [5] is recorded as 0%.

`COc1ccc2nc3ccccc3c(NC(=S)NCc3ccco3)c2c1`: the inhibition of growth at 10 µM was 71% in [1]; 37% in [2]; 23% in test [3]; 45% in [4]; 26% in [6]; 35% in test [7]. The inhibition of growth at 10 µM in test [8] came to 61%. The Activity in [5] is 30.98%.

With `COc1cccc2c(NCc3ccco3)c3ccccc3nc12`, the inhibition of growth at 10 µM came to 98% in test [1]; 36% in [2]; 83% in test [3]; 62% in [4]; 54% in test [6]; 50% in test [7]. Moreover, in [8], the inhibition of growth at 10 µM is 71%. The Activity in test [5] stood at 38.37%.

As for `COc1cccc2c(NCCc3c[nH]c4ccccc34)c3ccccc3nc12`, the inhibition of growth at 10 µM in [1] turned out to be 99%; in test [2], 49%; in [3] it was 84%; in test [4], 63%; in test [6] it was 75%; in test [7] it was 78%. Moreover, the inhibition of growth at 10 µM in test [8] is 91%. Also, the Activity in test [5] is listed as 39.69%.

Take `Cc1cccc2c(NCCc3c[nH]c4ccccc34)c3ccccc3nc12`: the inhibition of growth at 10 µM in [9] is 53%; in test [3], 69%; in [10] it was 42%; in [6], 23%; in test [11], 51%; in test [7], 53%. Besides, in [5], the Activity is given as 31.03%.

For the molecule `Cc1cccc2c(NC(=S)NCCc3c[nH]c4ccccc34)c3ccccc3nc12`, the inhibition of growth at 10 µM in test [1] came to 67%; in test [2], 84%; in [3], 98%; in test [4] it was 90%; in test [6] it was 96%; in test [7], 95%. In [5], the Activity stood at 35.77%.

For the molecule `COc1cccc2c(NCCc3cccs3)c3ccccc3nc12`, the inhibition of growth at 10 µM in [1] was 78%; in test [2] it was 61%; in test [3] it was 24%; in [4], 67%; in [6], 62%; in [7] it was 37%. Besides, the inhibition of growth at 10 µM in test [8] turned out to be 73%. In addition, in test [5], the Activity stood at 26.05%.

For the molecule `COc1ccc2nc3ccccc3c(NCc3ccco3)c2c1`, the inhibition of growth at 10 µM came to 95% in test [1]; 35% in [2]; 88% in test [3]; 65% in test [4]; 56% in test [6]; 44% in [7]. In addition, the inhibition of growth at 10 µM in [8] is 80%. Also, the Activity in [5] worked out at 22.96%.

Take `Cc1cccc2c(NCCc3cccs3)c3ccccc3nc12`: the inhibition of growth at 10 µM in test [9] stood at 52%; in test [3], 79%; in test [10] it was 41%; in test [6], 41%; in test [11], 6%; in test [7] it was 73%. In addition, in [5], the Activity was found to be 33.09%.

As to `COc1cccc2c(NCC3CCCO3)c3ccccc3nc12` (racemic), the inhibition of growth at 10 µM in test [1] is 69%; in test [2], 56%; in test [3] it was 66%; in [4], 60%; in [6], 34%; in test [7], 52%. Also, in test [8], the inhibition of growth at 10 µM stood at 64%. Moreover, the Activity in test [5] came out at 0%.

Regarding `Cc1cccc2c(NC(=S)NCC3CCCO3)c3ccccc3nc12` (racemic), the inhibition of growth at 10 µM came out at 21% in test [1]; 96% in test [2]; 71% in [3]; 95% in [4]; 14% in test [6]; 99% in test [7]. Moreover, the Activity in [5] turned out to be 25.35%.

As to `COc1ccc2nc3ccccc3c(NC(=S)NCC3CCCO3)c2c1` (racemic), the inhibition of growth at 10 µM in [1] amounted to 27%; in test [2] it was 24%; in test [3], 20%; in test [4], 21%; in test [6], 8%; in [7], 8%. For the same molecule, the inhibition of growth at 10 µM in test [8] stood at 41%. Besides, the Activity in test [5] is on record as 29.57%.

On to `COc1cccc2c1C(=O)c1c(O)c3c(c(O)c1C2=O)C[C@@](O)(C(=O)CO)C[C@@H]3O[C@H]1C[C@H](N)[C@H](O)[C@H](C)O1` [DOXORUBICIN], for which the inhibition of growth at 10 µM in test [1] came out at 86%; in test [2], 44%; in test [3] it was 34%; in test [4] it was 28%; in [6] it was 55%; in [7], 48%. Besides, in test [8], the inhibition of growth at 10 µM is 93%.

For `O=c1[nH]cc(F)c(=O)[nH]1` [FLUOROURACIL], the inhibition of growth at 10 µM in [1] worked out at 58%; in [2] it was 0%; in test [3] it was 25%; in [4], 40%; in test [6], 29%; in [7] it was 0%. In addition, the inhibition of growth at 10 µM in test [8] was 29%.

As to `CC(C)Cc1ccc(C(C)C(=O)O)cc1` (configuration not stated) [IBUPROFEN], the Activity in test [5] is 39%.

Take `CO[C@@]12[C@H](COC(N)=O)C3=C(C(=O)C(C)=C(N)C3=O)N1C[C@@H]1N[C@@H]12` [MITOMYCIN]: the inhibition of growth at 10 µM in test [1] stood at 85%; in test [2], 40%; in test [3], 4%; in [4], 44%; in test [6], 58%; in test [8], 25%.

For `CC(=O)O[C@H]1C(=O)[C@@]2(C)[C@H]([C@H](OC(=O)c3ccccc3)[C@]3(O)C[C@H](OC(=O)[C@H](O)[C@@H](NC(=O)c4ccccc4)c4ccccc4)C(C)=C1C3(C)C)[C@]1(OC(C)=O)CO[C@@H]1C[C@@H]2O` [PACLITAXEL], the inhibition of growth at 10 µM turned out to be 58% in test [1]; 51% in test [2]; 61% in [3]; 58% in test [4]; 75% in test [6]; 65% in [7]. Further, the inhibition of growth at 10 µM in [8] was 84%.
